Source: PMC9804387, “Substrate Peptidomimetic Inhibitors of P. falciparum Plasmepsin X with Potent Antimalarial Activity” (Chemmedchem, 2022)
“And” between values parts separate entries of the source, which are not always exact repeats. Identical values can stand only once. Counter-ions that a name gives are not always drawn. Like-named read-outs stand apart in the source and are kept apart here.

Assays:
[1] = molecular target: T1, recombinant Pf PMX (Plasmodium falciparum, UniProt Q8IAS0); assay: PMX biochemical FRET assay (Rh2N fluorogenic substrate cleavage); settings: for IC50: 37 °C
T1 construct: made in house
T1 sequence (Q8IAS0 222-573): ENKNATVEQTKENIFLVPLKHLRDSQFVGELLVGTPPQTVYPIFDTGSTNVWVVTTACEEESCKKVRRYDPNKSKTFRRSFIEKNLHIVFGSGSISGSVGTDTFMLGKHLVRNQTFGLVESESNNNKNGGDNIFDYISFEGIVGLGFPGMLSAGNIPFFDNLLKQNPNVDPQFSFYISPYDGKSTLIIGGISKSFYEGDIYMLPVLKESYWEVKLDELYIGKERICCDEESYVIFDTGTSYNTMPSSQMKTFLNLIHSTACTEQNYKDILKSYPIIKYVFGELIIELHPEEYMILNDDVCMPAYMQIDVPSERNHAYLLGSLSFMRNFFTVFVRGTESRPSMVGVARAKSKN
Method: FRET Protease Assays. FRET protease assays were performed as previously described.[19, 20, 27, 28] Briefly, ten‐point 1 : 3‐fold dilution series of the compounds were prepared in 384‐well black low volume assay plates (Greiner) using an Echo555 (Labcyte). 10 mM compound stocks were transferred into assay plates such that the starting concentration was 90 μM (Pv PMV assays), 11.25 μM (renin, cathepsin D and BACE‐1 assays) or 100 nM and 10 μM (Pf PMX and Pf PMIX assays). All wells were backfilled to 200 nL DMSO such that the DMSO concentration remained constant across the assay plates (1 % final). All compound potency assays were conducted in 20 μL total volume. For each assay, 10 μL of recombinant enzymes in respective assay buffers (Table S2) were dispensed into compound containing assay plates using a Multidrop‐Combi dispenser and allowed to incubate for 15 min. Recombinant Pf PMX, Pf PMIX and Pv PMV were expressed as previously described,[23, 27, 28] and recombinant human aspartyl proteases were purchased commercially. 10 μL of the fluorogenic peptide substrates incubated at 37 °C for the duration and conditions noted in Table S2. Samples were excited at 340 nm and fluorescence emission measured at 492 nm using an Envision fluorescence plate reader (Perkin‐Elmer). The 0 % inhibition control contained DMSO alone (1 % final) and the 100 % inhibition control was in the absence of enzyme. […]
(§1) Table S2 . P rotease FRET assay conditions.
(§2) PMX as sa y PMIX PM V assay Renin assay Cathepsin D assay BA CE-1 assay E nzy me prot e as e 0.25 nM pro te a se 6 nM prot e as e q ua nti ty 0.1 nM pro t ea se 1.5 nM pro t ea se 2.5 nM pro t ea se 3 nM (Pro te os #R-001) ( Athe ns Re sea rc h (Sigma #S4195) […]
(§3) 25mM so di um acetate, 100 mM 25 mM M E S, 25 m M 50 mM Tr is, 100 mM 100 mM so di u m 20 mM so dium Buffer acetate, 0.005% sodium chloride and Tris-HCl, 0.01% N aC l, 0. 1% Bri j-35, acetate 0.02% scetate, 0.05% […]
(§4) Sub str at e DABCYL- ( DA BC YL ) - DABCYL- DABCYL-(γ- Ab u) - E[E(EDANS)]KPIL […]

[2] = in vitro; type: cell-based; settings: human
Method: HepG2 Cytotoxicity Assay. HepG2 cytotoxicity assays were performed as previously described.[41] Briefly, human hepatocyte HepG2 cells were cultured in DMEM supplemented with 10 % FCS at 37 °C and 5 % CO2 in a humidified incubator. Cells were seeded at 1000 cells/well in 50 μL in 384‐well plates (Grenier) and compounds incubated in ten‐point 1 : 2‐fold dilution series for 48 h. Cytotoxicity was determined using Cell Titer‐Glo (Promega), normalized to DMSO alone controls (100 % viability) and control compound Bortezomib (0 % viability at 10 μM). CC50 values were calculated by GraphPad Prism (8.0.2) software using a nonlinear regression four‐parameter fit analysis with the sigmoidal dose response (variable slope).

[3] = test system: P. falciparum (Pf) 3D7 parasites; assay: P. falciparum LDH viability assay; type: cell-based; settings: for EC50: Plasmodium falciparum, 3D7, 72 h, LDH activity, 72 h at 37 °C, mean and SD of 3 independent experiments; for fold decrease in parasite activity compared to PMX inhibition: Pf 3D7 EC50 versus PMX IC50
Method: P. falciparum LDH Viability Assay. P. falciparum LDH viability assays were performed as previously described.[40] Briefly, a ten‐point 1 : 3‐fold dilution series of the compounds were pre‐dispensed in 384‐well assay plates (Grenier), and RPMI/AlbuMAX growth media inoculated with synchronized ring stage P. falciparum parasites. 10 mM compound stocks were transferred into the assay plates such that the starting concentration was 10 μM. Plates were incubated for 72 h and then frozen at −80 °C overnight. Lactate dehydrogenase (LDH) activity was quantified with APAD by measuring absorbance of NBT at 650 nm. Data were normalized to percent growth inhibition using the positive control of 0.1 % DMSO alone and the negative control of 100 nM chloroquine. Half‐maximal effective concentration (EC50) values were calculated by GraphPad Prism (8.0.2) software using a nonlinear regression four‐parameter fit analysis using a sigmoidal dose response (variable slope).

[4] = molecular target: T2, renin (Homo sapiens, UniProt P00797); assay: Renin FRET protease assay; type: biochemical; settings: mean and SD of 4 replicate FRET experiments, 37 °C; highest concentration tested 11 μM
T2 construct: purchased Proteos R-001
T2 sequence (P00797 67-406): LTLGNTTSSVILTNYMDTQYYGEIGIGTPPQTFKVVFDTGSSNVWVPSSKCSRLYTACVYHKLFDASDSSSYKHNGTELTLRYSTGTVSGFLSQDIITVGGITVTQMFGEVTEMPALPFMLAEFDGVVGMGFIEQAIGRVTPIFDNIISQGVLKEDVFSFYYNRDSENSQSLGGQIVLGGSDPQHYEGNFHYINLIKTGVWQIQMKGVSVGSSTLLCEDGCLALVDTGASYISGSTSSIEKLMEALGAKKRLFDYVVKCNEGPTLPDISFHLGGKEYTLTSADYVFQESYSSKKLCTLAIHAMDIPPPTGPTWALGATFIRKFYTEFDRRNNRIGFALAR

[5] = molecular target: T3, cathepsin D (Homo sapiens, UniProt P07339); assay: Cathepsin D FRET protease assay; type: biochemical; settings: mean and SD of 4 replicate FRET experiments, 37 °C; highest concentration tested 11 μM
T3 construct: purchased Athens Research 16-12-030104
T3 sequence (P07339 65-412): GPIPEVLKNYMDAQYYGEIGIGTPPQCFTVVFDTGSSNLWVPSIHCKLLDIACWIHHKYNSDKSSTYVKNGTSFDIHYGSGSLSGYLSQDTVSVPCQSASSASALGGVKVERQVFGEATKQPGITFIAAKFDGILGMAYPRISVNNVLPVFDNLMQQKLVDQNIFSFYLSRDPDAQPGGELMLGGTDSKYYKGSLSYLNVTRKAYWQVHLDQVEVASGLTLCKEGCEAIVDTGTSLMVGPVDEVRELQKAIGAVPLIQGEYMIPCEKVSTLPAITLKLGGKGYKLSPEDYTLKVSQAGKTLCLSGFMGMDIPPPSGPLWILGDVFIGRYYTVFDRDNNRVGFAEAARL

[6] = molecular target: T4, recombinant Pv PMV (Plasmodium vivax, UniProt A5K302); assay: PMV FRET protease assay; type: biochemical
T4 construct: made in house
T4 sequence (A5K302 35-536): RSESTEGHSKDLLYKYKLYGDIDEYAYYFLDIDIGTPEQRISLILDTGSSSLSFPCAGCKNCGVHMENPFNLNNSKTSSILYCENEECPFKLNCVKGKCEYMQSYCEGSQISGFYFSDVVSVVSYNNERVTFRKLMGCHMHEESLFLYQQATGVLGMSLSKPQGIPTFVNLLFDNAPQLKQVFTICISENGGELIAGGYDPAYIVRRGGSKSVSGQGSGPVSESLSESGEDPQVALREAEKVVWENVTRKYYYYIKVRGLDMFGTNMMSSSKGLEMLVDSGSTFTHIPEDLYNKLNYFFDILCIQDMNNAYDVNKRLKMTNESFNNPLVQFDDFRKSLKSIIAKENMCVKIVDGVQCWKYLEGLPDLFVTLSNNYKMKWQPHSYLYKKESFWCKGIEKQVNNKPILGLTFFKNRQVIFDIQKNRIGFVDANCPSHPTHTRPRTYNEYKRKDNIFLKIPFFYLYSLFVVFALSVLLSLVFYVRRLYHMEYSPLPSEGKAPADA
Method: (§5) FRET Protease Assays. FRET protease assays were performed as previously described.[19, 20, 27, 28] Briefly, ten‐point 1 : 3‐fold dilution series of the compounds were prepared in 384‐well black low volume assay plates (Greiner) using an Echo555 (Labcyte). 10 mM compound stocks were transferred into assay plates such that the starting concentration was 90 μM (Pv PMV assays), 11.25 μM (renin, cathepsin D and BACE‐1 assays) or 100 nM and 10 μM (Pf PMX and Pf PMIX assays). All wells were backfilled to 200 nL DMSO such that the DMSO concentration remained constant across the assay plates (1 % final). All compound potency assays were conducted in 20 μL total volume. For each assay, 10 μL of recombinant enzymes in respective assay buffers (Table S2) were dispensed into compound containing assay plates using a Multidrop‐Combi dispenser and allowed to incubate for 15 min. Recombinant Pf PMX, Pf PMIX and Pv PMV were expressed as previously described,[23, 27, 28] and recombinant human aspartyl proteases were purchased commercially. 10 μL of the fluorogenic peptide substrates incubated at 37 °C for the duration and conditions noted in Table S2. Samples were excited at 340 nm and fluorescence emission measured at 492 nm using an Envision fluorescence plate reader (Perkin‐Elmer). The 0 % inhibition control contained DMSO alone (1 % final) and the 100 % inhibition control was in the absence of enzyme. Half‐maximal inhibitory concentration (IC50) values were calculated by GraphPad Prism (8.0.2) software using a nonlinear regression four‐parameter fit analysis using a sigmoidal dose response (variable slope).
as §1, §2, §3, §4

[7] = molecular target: T5, BACE‐1 (Homo sapiens, UniProt P56817); assay: BACE-1 FRET protease assay; type: biochemical; settings: mean and SD of 4 replicate FRET experiments, 37 °C; highest concentration tested 11 μM
T5 construct: purchased Sigma S4195
T5 sequence (P56817 46-460 limits assumed): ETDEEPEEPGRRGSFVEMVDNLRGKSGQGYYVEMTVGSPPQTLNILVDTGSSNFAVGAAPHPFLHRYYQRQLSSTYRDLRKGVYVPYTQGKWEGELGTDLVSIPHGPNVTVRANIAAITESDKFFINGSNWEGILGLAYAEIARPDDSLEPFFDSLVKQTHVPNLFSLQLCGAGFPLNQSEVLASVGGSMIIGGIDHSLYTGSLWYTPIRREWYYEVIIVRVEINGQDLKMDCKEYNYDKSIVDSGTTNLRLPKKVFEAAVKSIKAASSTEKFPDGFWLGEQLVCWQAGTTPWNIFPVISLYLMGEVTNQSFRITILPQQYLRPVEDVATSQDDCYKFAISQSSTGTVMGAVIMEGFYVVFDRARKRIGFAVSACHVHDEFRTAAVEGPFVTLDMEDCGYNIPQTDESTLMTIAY

[8] = molecular target: T6, recombinant Pf PMIX (Plasmodium falciparum, UniProt Q8ILG2); assay: PMIX FRET protease assay; type: biochemical, P. falciparum; settings: mean and SD of 4 replicate FRET experiments, 37 °C
T6 construct: made in house
T6 sequence (Q8ILG2 whole entry): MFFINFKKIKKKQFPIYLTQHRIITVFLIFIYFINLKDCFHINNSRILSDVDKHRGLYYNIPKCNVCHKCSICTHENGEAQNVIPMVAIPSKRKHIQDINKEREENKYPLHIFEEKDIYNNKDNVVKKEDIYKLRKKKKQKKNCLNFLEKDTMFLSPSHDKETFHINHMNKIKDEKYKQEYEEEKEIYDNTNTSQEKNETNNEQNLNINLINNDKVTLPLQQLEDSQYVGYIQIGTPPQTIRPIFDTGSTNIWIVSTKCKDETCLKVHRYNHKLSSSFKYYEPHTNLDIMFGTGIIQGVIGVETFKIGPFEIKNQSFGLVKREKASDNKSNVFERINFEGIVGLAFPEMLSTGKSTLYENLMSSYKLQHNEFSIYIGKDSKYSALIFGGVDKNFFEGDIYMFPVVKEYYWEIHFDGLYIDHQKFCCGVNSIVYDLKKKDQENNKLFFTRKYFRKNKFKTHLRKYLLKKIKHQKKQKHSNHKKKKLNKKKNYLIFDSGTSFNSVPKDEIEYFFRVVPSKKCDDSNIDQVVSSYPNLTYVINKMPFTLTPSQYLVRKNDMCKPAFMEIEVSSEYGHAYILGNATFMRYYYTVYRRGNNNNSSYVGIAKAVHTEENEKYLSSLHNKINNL
Method: as §5, §1, §2, §3, §4

[9] = recombinant PMX, fluorogenic substrate (Rh2N) cleavage, 4 h, mean and SD of 4 replicates (Tables 1, 2)

CC(C)C[C@H](NC(=O)[C@H](CO)NC(=O)OCc1ccccc1)[C@H](O)CN[C@H](C)c1ccccc1 [Compd 41, Cbz‐Ser‐Leu‐HEA‐Bn(CH3)⋅TFA]
IC50 [1, 9]: 1800 nM
CC50 at 48 h [2]: > 40000 nM
EC50 [3]: 3200 nM

CCC(C)C(NC(C)=O)C(=O)NC(CO)C(=O)NC(Cc1ccccc1)C(O)CNC(C)c1ccccc1 (stereo not shown) [Compd 26, Ac‐Ile‐Ser‐Phe‐HEA‐Bn(CH3)⋅TFA]
IC50 ([1]; Table 3, mean and SD of 4 replicate FRET experiments): 10 nM
IC50 [1, 9]: 10 nM
IC50 [4]: > 11000 nM
IC50 [5]: > 11000 nM
IC50 [6]: > 90000 nM
IC50 [7]: 2900 nM
CC50 at 48 h [2]: > 40000 nM
EC50 [3]: 190 nM
IC50 [8]: 2700 nM

CC(C)CC(NC(=O)C(CO)NC(=O)OCc1ccccc1)C(=O)NC(Cc1ccccc1)C(O)CNC(C)c1ccccc1 (stereo not shown) [Compd 24, Cbz‐Ser‐Leu‐Phe‐HEA‐Bn(CH3)⋅TFA]
IC50 [1, 9]: < 1000 nM and 200 nM
CC50 at 48 h [2]: > 40000 nM
EC50 [3]: 1600 nM

C[C@@H](NC[C@@H](O)[C@H](Cc1ccccc1)NC(=O)[C@@H](CO)NC(=O)OCc1ccccc1)c1ccccc1 [Compd 40, Cbz‐D‐Ser‐Phe‐HEA‐Bn(CH3)⋅TFA]
fold less active against PMX than the L‐configured Ser (38) counterpart ([1]; PMX IC50 compared with 38): 7 fold
IC50 [1, 9]: 330 nM
CC50 at 48 h [2]: > 40000 nM
EC50 [3]: 570 nM

CC(C)C[C@H](NC(=O)[C@@H](NC(=O)[C@H](CCON=C(N)N)NC(=O)OCc1ccccc1)C(C)C)[C@@H](O)CC(=O)NCCc1ccccc1 [WEHI-842, reference compound]
IC50 ([6]; Table S2, positive control activity in assay, 90 min, read-out: Positive control IC50 in PMV assay): 17 nM

CC(=O)NC(CO)C(=O)NC(CO)C(=O)NC(Cc1ccccc1)C(O)CNC(C)c1ccccc1 (stereo not shown) [Compd 28, Ac‐Ser‐Ser‐Phe‐HEA‐Bn(CH3)⋅TFA]
IC50 [1, 9]: 580 nM
CC50 at 48 h [2]: > 40000 nM
fold decrease in parasite activity compared to PMX inhibition [3]: approximately 10 fold
EC50 [3]: > 11000 nM

CC(C)CC(NC(=O)C(CO)NC(=O)OCc1ccccc1)C(=O)NC(CC(C)C)C(O)CNC(C)c1ccccc1 (stereo not shown) [Compd 25, Cbz‐Ser‐Leu‐Leu‐HEA‐Bn(CH3)⋅TFA]
IC50 [1, 9]: > 1000 nM and 3500 nM
CC50 at 48 h [2]: > 40000 nM
EC50 [3]: > 11000 nM

C[C@@H](NC[C@@H](O)[C@H](Cc1ccccc1)NC(=O)[C@H](Cc1ccccc1)NC(=O)OCc1ccccc1)c1ccccc1 [Compd 36, Cbz‐Phe‐Phe‐HEA‐Bn(CH3)]
IC50 [1, 9]: 70 nM
CC50 at 48 h [2]: > 40000 nM
fold decrease in parasite activity compared to PMX inhibition [3]: approximately 6 fold
EC50 [3]: 650 nM

CC(NCC(O)C(Cc1ccccc1)NC(=O)C(Cc1ccccc1)NC(=O)C(CO)NC(=O)OCc1ccccc1)c1ccccc1 (stereo not shown) [Compd 22, Cbz‐Ser‐Phe‐Phe‐HEA‐Bn(CH3)⋅TFA]
IC50 [1, 9]: < 1000 nM and 190 nM and 170 nM
CC50 at 48 h [2]: > 40000 nM
EC50 [3]: 1400 nM

CC(C)C[C@H](NC(=O)OCc1ccccc1)C(=O)N[C@@H](Cc1ccccc1)[C@H](O)CN[C@H](C)c1ccccc1 [Compd 35, Cbz‐Leu‐Phe‐HEA‐Bn(CH3)]
IC50 [1, 9]: 180 nM
CC50 at 48 h [2]: 18000 nM
fold decrease in parasite activity compared to PMX inhibition [3]: approximately 6 fold
EC50 [3]: 600 nM

CC(O)[C@H](NC(=O)OCc1ccccc1)C(=O)N[C@@H](Cc1ccccc1)[C@H](O)CN[C@H](C)c1ccccc1 (stereo partly shown) [Compd 42, Cbz‐Thr‐Phe‐HEA‐Bn(CH3)⋅TFA]
IC50 [1, 9]: 160 nM
CC50 at 48 h [2]: > 40000 nM
fold decrease in parasite activity compared to PMX inhibition [3]: 2 fold
EC50 [3]: 260 nM

CC(=O)NC(CC(N)=O)C(=O)NC(CO)C(=O)NC(Cc1ccccc1)C(O)CNC(C)c1ccccc1 (stereo not shown) [Compd 27, Ac‐Asn‐Ser‐Phe‐HEA‐Bn(CH3)⋅TFA]
IC50 [1, 9]: 580 nM
CC50 at 48 h [2]: > 40000 nM
fold decrease in parasite activity compared to PMX inhibition [3]: approximately 10 fold
EC50 [3]: 6700 nM

CC(C)CC(NC(=O)C(Cc1ccccc1)NC(=O)C(CO)NC(=O)OCc1ccccc1)C(O)CNC(C)c1ccccc1 (stereo not shown) [Compd 23, Cbz‐Ser‐Phe‐Leu‐HEA‐Bn(CH3)⋅TFA]
IC50 [1, 9]: > 1000 nM and 3600 nM
CC50 at 48 h [2]: 30000 nM
EC50 [3]: 6000 nM

CC(=O)N[C@@H](CO)C(=O)N[C@@H](Cc1ccccc1)[C@H](O)CN[C@H](C)c1ccccc1 [Compd 39, Ac‐Ser‐Phe‐HEA‐Bn(CH3)⋅TFA]
IC50 [1, 9]: 3300 nM
CC50 at 48 h [2]: > 40000 nM
EC50 [3]: 6200 nM
